Measured values reported in US20240409585A1, “MACROCYCLIC IMMUNOMODULATORS” (priority 2021, published 2024).
Numbered stars: 1 amine (or outer) side, 2 acyl side, 3 side chain; on linkers, the order of the positions; unused ones are H or OH. Bridge positions count the residues as written; N and C are the ends. Square brackets hold non-standard residues; d marks the D form. Peptide text beside a SMILES is read from it. * marks the point of attachment. X47 = O=C([C@H](Cc1ccc(-c2cccc(OC(F)(F)F)c2)cc1)N[*:1])[*:2]; X33 = O=C([C@H](Cc1ccc(-c2cccc(Cl)c2)cc1)N[*:1])[*:2]; Phe(4-COOH) = N[C@@H](Cc1ccc(C(=O)O)cc1)C(=O)O; Bip = N[C@@H](Cc1ccc(-c2ccccc2)cc1)C(=O)O; Phe(3-OMe) = COc1cccc(C[C@H](N)C(=O)O)c1; Phe(3-Me) = Cc1cccc(C[C@H](N)C(=O)O)c1; Phe(2-F) = N[C@@H](Cc1ccccc1F)C(=O)O; Val(3-OH) = CC(C)(O)[C@H](N)C(=O)O; 4Pal = N[C@@H](Cc1ccncc1)C(=O)O; 2Thi = N[C@@H](Cc1cccs1)C(=O)O; Cha = N[C@@H](CC1CCCCC1)C(=O)O; NMeAbu = CC[C@H](NC)C(=O)O; Carboxymethyl = O=C(O)C*; NMeA = CN[C@@H](C)C(=O)O; Orn = NCCC[C@H](N)C(=O)O; Dab = NCC[C@H](N)C(=O)O; Dap = NC[C@H](N)C(=O)O; Aib = CC(C)(N)C(=O)O

Molecular target: T1, PE-labeled human PD-L1-Ig binding to Jurkat cell line over-expressing human PD-1 (Jurkat-PD-1) (Homo sapiens, UniProt Q15116)
T1 construct: expressed in transfected cells; host or cells: Jurkat
Experiment: Jurkat-PD-1 Cell Binding High-Content Screening Assay (CBA): Method 1
Conditions: Jurkat-hPD-1 cells, PE-labeled PD-L1-Ig 20 nM final; read-out: Jurkat HPDL1 PD1 IC50 (uM) (Method 1)

T1 sequence (Q15116 25-288): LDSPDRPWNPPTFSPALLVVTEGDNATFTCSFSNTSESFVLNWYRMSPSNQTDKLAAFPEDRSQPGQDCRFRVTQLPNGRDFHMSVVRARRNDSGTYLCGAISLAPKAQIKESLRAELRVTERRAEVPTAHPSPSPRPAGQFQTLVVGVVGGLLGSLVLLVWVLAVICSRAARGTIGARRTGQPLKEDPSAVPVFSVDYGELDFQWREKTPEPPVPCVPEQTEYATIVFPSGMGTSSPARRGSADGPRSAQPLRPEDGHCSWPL

Structure (SMILES)	IC50 [µM]
CC(C)C[C@@H]1NC(=O)[C@H](CCN)NC(=O)[C@@H](CC(C)C)NC(=O)[C@H](C)N(C)C(=O)[C@H](CCCNC(=N)N)NC(=O)[C@H](Cc2ccc(-c3cccc(OC(F)(F)F)c3)cc2)NC(=O)[C@H](C(C)C)NC(=O)[C@H](Cc2c[nH]c3ccccc23)NC(=O)[C@H](CC(=O)O)NC(=O)[C@H](Cc2ccc(O)cc2)NC(=O)[C@H](CC(N)=O)NC(=O)CSC[C@@H](C(=O)N[C@@H](C)C(N)=O)NC(=O)[C@H]([C@@H](C)O)NC(=O)[C@H](C(C)C)NC1=O [Compound 1228] ({CH2CO}-NYDWV[X47]R[NMeA][dL][Dab]LVTCA-NH2; thioether N-14)	0.9
CC(C)C[C@@H]1NC(=O)[C@H](CCN)NC(=O)[C@@H](CC(C)C)NC(=O)[C@H](C)N(C)C(=O)[C@H](CCCNC(=N)N)NC(=O)[C@H](Cc2ccc(-c3ccccc3)cc2)NC(=O)[C@H](C(C)C)NC(=O)[C@H](Cc2cccs2)NC(=O)[C@H](CC(=O)O)NC(=O)[C@H](Cc2ccc(O)cc2)NC(=O)[C@H](CC(N)=O)NC(=O)CSC[C@@H](C(=O)N[C@@H](C)C(N)=O)NC(=O)[C@H]([C@@H](C)O)NC(=O)[C@H](C(C)C)NC1=O [Compound 1219] ({CH2CO}-NYD[2Thi]V[Bip]R[NMeA][dL][Dab]LVTCA-NH2; thioether N-14)	0.26
CC[C@H]1C(=O)N[C@H](CC(C)C)C(=O)N[C@@H](CCN)C(=O)N[C@@H](CC2CCCCC2)C(=O)N[C@@H](C(C)(C)O)C(=O)N[C@@H](CO)C(=O)N[C@H](C(=O)N[C@@H](CCN)C(N)=O)CSCC(=O)N[C@@H](Cc2ccncc2)C(=O)N[C@@H](Cc2ccc(OCC(=O)O)cc2)C(=O)N[C@@H](CC(=O)O)C(=O)N[C@@H](Cc2cccc(C)c2)C(=O)N[C@@H](Cc2ccc(OCC(=O)O)cc2)C(=O)N[C@@H](Cc2ccc(-c3ccccc3)cc2)C(=O)N[C@@H](Cc2ccc(OCC(=O)O)cc2)C(=O)N1C [Compound 1837] ({CH2CO}-[4Pal]Y(Carboxymethyl)D[Phe(3-Me)]Y(Carboxymethyl)[Bip]Y(Carboxymethyl)[NMeAbu][dL][Dab][Cha][Val(3-OH)]SC[Dab]-NH2; thioether N-14)	0.47
CC(C)C[C@@H]1NC(=O)[C@H](Cc2c[nH]c3ccccc23)NC(=O)[C@H](CC(=O)O)NC(=O)[C@H](Cc2ccc(O)cc2)NC(=O)[C@H](Cc2ccccc2)NC(=O)CSC[C@@H](C(=O)NCC(N)=O)NC(=O)[C@H](CO)NC(=O)[C@H](C(C)C)NC(=O)[C@H](CC(C)C)NC(=O)[C@H](CC(N)=O)NC(=O)C(C)(C)NC(=O)[C@H](C)N(C)C(=O)[C@H](C(C)C)NC(=O)[C@H](Cc2ccc(-c3ccccc3)cc2)NC1=O [Compound 1818] ({CH2CO}-FYDWL[Bip]V[NMeA][Aib]NLVSCG-NH2; thioether N-14)	0.42
Cc1cccc(C[C@@H]2NC(=O)[C@H](CC(=O)O)NC(=O)[C@H](Cc3ccc(C(=O)O)cc3)NC(=O)[C@H](Cc3ccncc3)NC(=O)CSC[C@@H](C(=O)N[C@@H](CO)C(N)=O)NC(=O)[C@H](CCC(=O)O)NC(=O)[C@H](C(C)(C)O)NC(=O)[C@H](CC3CCCCC3)NC(=O)[C@H](CCN)NC(=O)[C@@H](CC(C)C)NC(=O)[C@H](C)N(C)C(=O)[C@H](Cc3ccc(OCC(=O)O)cc3)NC(=O)[C@H](Cc3ccc(-c4ccccc4)cc3)NC(=O)[C@H](Cc3ccc(C(=O)O)cc3)NC2=O)c1 [Compound 2195] ({CH2CO}-[4Pal][Phe(4-COOH)]D[Phe(3-Me)][Phe(4-COOH)][Bip]Y(Carboxymethyl)[NMeA][dL][Dab][Cha][Val(3-OH)]ECS-NH2; thioether N-14)	0.08
CC(C)C[C@@H]1NC(=O)[C@H](CCN)NC(=O)[C@@H](CC(C)C)NC(=O)[C@H](C)N(C)C(=O)[C@H](C(C)C)NC(=O)[C@H](Cc2ccc(-c3ccccc3)cc2)NC(=O)[C@H](C(C)C)NC(=O)[C@H](Cc2c[nH]c3ccccc23)NC(=O)[C@H](CC(=O)O)NC(=O)[C@H](Cc2ccccc2F)NC(=O)[C@H](CN)NC(=O)CSC[C@@H](C(=O)N[C@@H](C)C(N)=O)NC(=O)[C@H]([C@@H](C)O)NC(=O)[C@H](C(C)C)NC1=O [Compound 1442] ({CH2CO}-[Dap][Phe(2-F)]DWV[Bip]V[NMeA][dL][Dab]LVTCA-NH2; thioether N-14)	0.03
Cc1cccc(C[C@@H]2NC(=O)[C@H](CC(=O)O)NC(=O)[C@H](Cc3ccc(OCC(=O)O)cc3)NC(=O)[C@H](CN)NC(=O)CSC[C@@H](C(=O)N[C@@H](C)C(N)=O)NC(=O)[C@H]([C@@H](C)O)NC(=O)[C@H](C(C)C)NC(=O)[C@H](CC(C)C)NC(=O)[C@H](CCN)NC(=O)[C@@H](CC(C)C)NC(=O)[C@H](C)N(C)C(=O)[C@H](C(C)C)NC(=O)[C@H](Cc3ccc(-c4ccccc4)cc3)NC(=O)[C@H](C(C)C)NC2=O)c1 [Compound 1418] ({CH2CO}-[Dap]Y(Carboxymethyl)D[Phe(3-Me)]V[Bip]V[NMeA][dL][Dab]LVTCA-NH2; thioether N-14)	0.01
COc1cccc(C[C@@H]2NC(=O)[C@H](CN)NC(=O)CSC[C@@H](C(=O)NCC(N)=O)NC(=O)[C@H](CO)NC(=O)[C@H](C(C)C)NC(=O)[C@H](CC(C)C)NC(=O)[C@H](CC(N)=O)NC(=O)[C@@H](CC(C)C)NC(=O)[C@H](C)N(C)C(=O)[C@H](C(C)C)NC(=O)[C@H](Cc3ccc(-c4ccccc4)cc3)NC(=O)[C@H](CC(C)C)NC(=O)[C@H](Cc3c[nH]c4ccccc34)NC(=O)[C@H](CC(=O)O)NC2=O)c1 [Compound 1522] ({CH2CO}-[Dap][Phe(3-OMe)]DWL[Bip]V[NMeA][dL]NLVSCG-NH2; thioether N-14)	0.05
CC(C)C[C@@H]1NC(=O)[C@H](CCCNC(=N)N)NC(=O)[C@@H](CC(C)C)NC(=O)[C@H](C)N(C)C(=O)[C@H](CCCNC(=N)N)NC(=O)[C@H](Cc2ccc(-c3ccccc3)cc2)NC(=O)[C@H](C(C)C)NC(=O)[C@H](Cc2c[nH]c3ccccc23)NC(=O)[C@H](CC(=O)O)NC(=O)[C@H](Cc2ccc(O)cc2)NC(=O)[C@H](CC(N)=O)NC(=O)CSC[C@@H](C(=O)N[C@@H](C)C(N)=O)NC(=O)[C@H](CCCN)NC(=O)[C@H](C(C)C)NC1=O [Compound 1252] ({CH2CO}-NYDWV[Bip]R[NMeA][dL]RLV[Orn]CA-NH2; thioether N-14)	0.09
CC(C)C[C@@H]1NC(=O)[C@H](CCN)NC(=O)[C@@H](CC(C)C)NC(=O)[C@H](C)N(C)C(=O)[C@H](CCCNC(=N)N)NC(=O)[C@H](Cc2ccc(-c3cccc(Cl)c3)cc2)NC(=O)[C@H](C(C)C)NC(=O)[C@H](Cc2c[nH]c3ccccc23)NC(=O)[C@H](CC(=O)O)NC(=O)[C@H](Cc2ccc(O)cc2)NC(=O)[C@H](CC(N)=O)NC(=O)CSC[C@@H](C(=O)N[C@@H](C)C(N)=O)NC(=O)[C@H]([C@@H](C)O)NC(=O)[C@H](C(C)C)NC1=O [Compound 1222] ({CH2CO}-NYDWV[X33]R[NMeA][dL][Dab]LVTCA-NH2; thioether N-14)	0.12
CC(C)C[C@H]1NC(=O)[C@H](C)N(C)C(=O)[C@H](C(C)C)NC(=O)[C@H](Cc2ccc(-c3ccccc3)cc2)NC(=O)[C@H](C(C)C)NC(=O)[C@H](Cc2c[nH]c3ccccc23)NC(=O)[C@H](CC(=O)O)NC(=O)[C@H](Cc2ccc(O)cc2)NC(=O)[C@H](Cc2ccccc2)NC(=O)CSC[C@@H](C(=O)N[C@@H](C)C(N)=O)NC(=O)[C@H]([C@@H](C)O)NC(=O)[C@H](C(C)C)NC(=O)[C@H](CC2CCCCC2)NC(=O)[C@H](CCCNC(=N)N)NC1=O [Compound 1487] ({CH2CO}-FYDWV[Bip]V[NMeA][dL]R[Cha]VTCA-NH2; thioether N-14)	0.32
